The text below walks through data of patent publication US20250326772A1, “MRGPRX2 ANTAGONISTS, PHARMACEUTICAL COMPOSITION INCLUDING MRGPRX2 ANTAGONIST, AND METHOD OF TREATING MRGPRX2-MEDIATED DISEASE OR DISORDER” (KYORIN PHARMACEUTICAL CO., LTD., priority 2024, published 2025).

This assay deals with T1, MRGPRX2 (Homo sapiens, UniProt Q96LB1).
T1 sequence (Q96LB1 1-330): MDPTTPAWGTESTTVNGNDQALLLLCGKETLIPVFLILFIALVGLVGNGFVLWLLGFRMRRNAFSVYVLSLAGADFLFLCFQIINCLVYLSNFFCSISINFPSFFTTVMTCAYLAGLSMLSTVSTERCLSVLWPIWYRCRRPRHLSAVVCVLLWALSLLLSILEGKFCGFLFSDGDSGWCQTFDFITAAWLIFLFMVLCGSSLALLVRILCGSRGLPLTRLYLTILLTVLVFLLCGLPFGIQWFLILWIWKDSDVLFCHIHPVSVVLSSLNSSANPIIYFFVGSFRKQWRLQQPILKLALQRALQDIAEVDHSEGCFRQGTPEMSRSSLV
The assay is described as follows: MRGPRX2 reporter cell assay (NFAT-RE luciferase, Substance P stimulation). Format: cell-based. Conditions: U2OS cells stably transfected with MRGPRX2 and NFAT-RE luciferase reporter, Substance P at EC80. In a few lines:
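U2OS cells stably expressing MRGPRX2 and an NFAT-RE luc2P reporter, pre-incubated 30 min at 37° C with compound (0.5% DMSO), then stimulated with Substance P at EC80 for 6 h. Luminescence after ONE-GLO; percent inhibition fitted by four-parameter logistic to IC50.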

With `COC(=O)N[C@@H]1COc2c(-c3[nH]c4ncccc4c3-c3cn(C)nc3C#N)c(C(F)F)nn2C1` [EX. 517], the IC50 was found to be 3.2 nM. The compound further gave an IC50 (class symbols) of less than 10 nM.
For the setting “class symbols”, `COC(=O)N[C@@H]1COc2c(-c3[nH]c4ncccc4c3-c3csnc3OC(F)F)c(C(F)F)nn2C1` [EX. 518] displayed an IC50 of less than 10 nM.
Still for that read-out and setting: then `COC(=O)N[C@@H]1COc2c(-c3[nH]c4ncsc4c3-c3cn(C)nc3OC(F)F)c(C(F)F)nn2C1` [EX. 519], with less than 10 nM; and `Cn1cc(-c2c(-c3c(C(F)F)nn4c3OC[C@@H](NS(C)(=O)=O)C4)[nH]c3ncsc23)c(OC(F)F)n1` [EX. 520, (S)—N-(3-(6-(3-(difluoromethoxy)-1-methyl-1H-pyrazol-4-yl)-4H-pyrrolo[2,3-d]thiazol-5-yl)-2-(difluoromethyl)-6,7-dihydro-5H-pyrazolo[5,1-b] [1,3]oxazin-6-yl) methanesulfonamide], with less than 10 nM; and `CS(=O)(=O)N[C@@H]1COc2c(-c3[nH]c4ncccc4c3-c3cccnc3OC(F)F)c(C(F)F)nn2C1` [EX. 521], with less than 10 nM.
For the compound `CS(=O)(=O)N[C@@H]1COc2c(-c3[nH]c4ncccc4c3-c3cccnc3C#N)c(C(F)F)nn2C1` [EX. 522], for the setting “class symbols”, the half-inhibitory concentration (IC50) is less than 10 nM.
For `CS(=O)(=O)N[C@@H]1COc2c(-c3[nH]c4ncccc4c3-c3ccncc3C#N)c(C(F)F)nn2C1` [EX. 523], the IC50 (class symbols) was less than 10 nM.
`CS(=O)(=O)N[C@@H]1COc2c(-c3[nH]c4ncccc4c3-c3csnc3OC(F)F)c(C(F)F)nn2C1` [EX. 524] showed an IC50 (class symbols) of less than 10 nM.
For `Cc1cc(-c2c(-c3c(C(F)F)nn4c3OC[C@@H](NS(C)(=O)=O)C4)[nH]c3ncccc23)c(C#N)s1` [EX. 525], the half-maximal inhibitory concentration (IC50) (class symbols) is less than 10 nM.
The compound `Cn1cc(-c2c(-c3c(C(F)F)nn4c3OC[C@@H](NS(C)(=O)=O)C4)[nH]c3ncccc23)c(OC(F)F)n1` [EX. 526, (S)—N-(3-(3-(3-(difluoromethoxy)-1-methyl-1H-pyrazol-4-yl)-1H-pyrrolo[2,3-b]pyridin-2-yl)-2-(difluoromethyl)-6,7-dihydro-5H-pyrazolo[5,1-b] [1,3]oxazin-6-yl) methanesulfonamide] returned a 50% inhibitory concentration (IC50) (class symbols) of less than 10 nM.
Consider `Cn1cc(-c2c(-c3c(C(F)F)nn4c3OC[C@@H](O)C4)[nH]c3ncccc23)c(OC(F)F)n1` [EX. 527, (S)-3-(3-(3-(difluoromethoxy)-1-methyl-1H-pyrazol-4-yl)-1H-pyrrolo[2,3-b]pyridin-2-yl)-2-(difluoromethyl)-6,7-dihydro-5H-pyrazolo[5,1-b] [1,3]oxazin-6-ol], for which half-maximal inhibition (IC50) was put at 4.4 nM. Also, the IC50 (class symbols) was less than 10 nM.
`Cn1cc(-c2c(-c3c(C(F)(F)F)nn4c3OCCC4)[nH]c3ncccc23)c(OC(F)F)n1` [EX. 528] displayed a half-inhibitory concentration (IC50) (class symbols) of less than 10 nM.
Under “class symbols”, `Cn1cc(-c2c(-c3c(C(F)F)nn4c3OC[C@@H](OC(F)F)C4)[nH]c3ncccc23)c(OC(F)F)n1` [EX. 529] registered an IC50 of less than 10 nM.
With `COC(=O)CO[C@@H]1COc2c(-c3[nH]c4ncccc4c3-c3cn(C)nc3OC(F)F)c(C(F)F)nn2C1` [EX. 530], the half-inhibitory concentration (IC50) (class symbols) was less than 10 nM.
`CO[C@@H]1COc2c(-c3[nH]c4ncccc4c3-c3cn(C)nc3OC(F)F)c(C(F)F)nn2C1` [EX. 531]: the IC50 was 2.3 nM. Where the note is “class symbols”, this compound displayed an IC50 of less than 10 nM.
The compound `CCO[C@@H]1COc2c(-c3[nH]c4ncccc4c3-c3cn(C)nc3OC(F)F)c(C(F)F)nn2C1` [EX. 532] returned a concentration for half-maximal inhibition (IC50) (class symbols) of less than 10 nM.
For the setting “class symbols”, `COCCO[C@@H]1COc2c(-c3[nH]c4ncccc4c3-c3cn(C)nc3OC(F)F)c(C(F)F)nn2C1` [EX. 533] gave an IC50 of less than 10 nM.
`Cn1cc(-c2c(-c3c(C(F)F)nn4c3OC[C@@H](OCCO)C4)[nH]c3ncccc23)c(OC(F)F)n1` [EX. 534] returned a half-inhibitory concentration (IC50) of 2.1 nM. The compound also had an IC50 (class symbols) of less than 10 nM.
Turning to `Cn1cc(-c2c(-c3c(C(F)F)nn4c3OC[C@@H](OCC(C)(C)O)C4)[nH]c3ncccc23)c(OC(F)F)n1` [EX. 535], the IC50 turned out to be 2 nM. For the setting “class symbols”, this compound displayed a 50% inhibitory concentration (IC50) of less than 10 nM.
In the case of `Cn1cc(-c2c(-c3c(C(F)F)nn4c3OC[C@@H](OCCNS(C)(=O)=O)C4)[nH]c3ncccc23)c(OC(F)F)n1` [EX. 536], the IC50 (class symbols) is less than 10 nM.
Turning to `CC(=O)NCCO[C@@H]1COc2c(-c3[nH]c4ncccc4c3-c3cn(C)nc3OC(F)F)c(C(F)F)nn2C1` [EX. 537], the IC50 (class symbols) was less than 10 nM.
Take `CN(C)CCO[C@@H]1COc2c(-c3[nH]c4ncccc4c3-c3cn(C)nc3OC(F)F)c(C(F)F)nn2C1` [EX. 538]: the 50% inhibitory concentration (IC50) (class symbols) is less than 10 nM.
On the same count and under the same terms, then `CCNC(=O)O[C@@H]1COc2c(-c3[nH]c4ncccc4c3-c3cn(C)nc3OC(F)F)c(C(F)F)nn2C1` [EX. 539], with less than 10 nM; and `CNC(=O)O[C@@H]1COc2c(-c3[nH]c4ncccc4c3-c3cn(C)nc3OC(F)F)c(C(F)F)nn2C1` [EX. 540], with less than 10 nM.
For `CO[C@@H]1COc2c(-c3[nH]c4ncccc4c3-c3cn(C)nc3OC(F)F)c(C)nn2C1` [EX. 541], the IC50 (class symbols) is less than 10 nM.
For `Cc1nn2c(c1-c1[nH]c3ncccc3c1-c1cn(C)nc1OC(F)F)OC[C@@H](OCCO)C2` [EX. 542], the IC50 (class symbols) is less than 10 nM.
On the same count and under the same terms, then `Cn1cc(-c2c(-c3c(C(F)F)nn4c3OC[C@@H](N)C4)[nH]c3ncccc23)c(OC(F)F)n1` [EX. 543], with less than 10 nM; and `CC(=O)N[C@@H]1COc2c(-c3[nH]c4ncccc4c3-c3cn(C)nc3OC(F)F)c(C(F)F)nn2C1` [EX. 544], with less than 10 nM.
On to `CCc1nn2c(c1-c1[nH]c3ncccc3c1-c1cn(C)nc1OC(F)F)OC[C@@H](NS(C)(=O)=O)C2` [EX. 545], for which the concentration for half-maximal inhibition (IC50) (class symbols) is less than 10 nM.
For `COC(=O)N[C@@H]1COc2c(-c3[nH]c4ncccc4c3-c3cn(C)nc3OC(F)F)c(C)nn2C1` [EX. 546], for the setting “class symbols”, the concentration for half-maximal inhibition (IC50) is less than 10 nM.
Turning to `Cc1nn2c(c1-c1[nH]c3ncccc3c1-c1cn(C)nc1OC(F)F)OC[C@@H](NS(C)(=O)=O)C2` [EX. 547], under “class symbols”, the IC50 was less than 10 nM.
Still for that read-out and setting: then `Cn1cc(-c2c(-c3c(C(F)F)nn4c3OC[C@@H](NC(=O)[C@@H]3C[C@@H]3F)C4)[nH]c3ncccc23)c(OC(F)F)n1` [EX. 549], with less than 10 nM.
The same measure, in the same setting: then `Cn1cc(-c2c(-c3c(C(F)F)nn4c3OC[C@@H](NC(=O)[C@H]3C[C@@H]3F)C4)[nH]c3ncccc23)c(OC(F)F)n1` [EX. 550], with less than 10 nM.
Turning to `Cn1cc(-c2c(-c3c(C(F)F)nn4c3OC[C@@H](NC(=O)[C@@H]3C[C@H]3F)C4)[nH]c3ncccc23)c(OC(F)F)n1` [EX. 551], where the note is “class symbols”, the IC50 was less than 10 nM.
Consider `Cn1cc(-c2c(-c3c(C(F)F)nn4c3OC[C@@H](NC(=O)[C@@H]3CC3(F)F)C4)[nH]c3ncccc23)c(OC(F)F)n1` [EX. 552], for which, where the note is “class symbols”, the IC50 was less than 10 nM.
The compound `Cn1cc(-c2c(-c3c(C(F)F)nn4c3OC[C@@H](NC(=O)[C@H]3CC3(F)F)C4)[nH]c3ncccc23)c(OC(F)F)n1` [EX. 553] had an IC50 (class symbols) of less than 10 nM.
`Cn1cc(-c2c(-c3c(C(F)F)nn4c3OC[C@@H](NC(=O)C3CC(F)(F)C3)C4)[nH]c3ncccc23)c(OC(F)F)n1` [EX. 554] registered a half-maximal inhibitory concentration (IC50) (class symbols) of less than 10 nM.
Under “class symbols”, `C[C@@H](O)CC(=O)N[C@@H]1COc2c(-c3[nH]c4ncccc4c3-c3cn(C)nc3OC(F)F)c(C(F)F)nn2C1` [EX. 555] had an IC50 of less than 10 nM.
Turning to `C[C@H](O)CC(=O)N[C@@H]1COc2c(-c3[nH]c4ncccc4c3-c3cn(C)nc3OC(F)F)c(C(F)F)nn2C1` [EX. 556], for the setting “class symbols”, the IC50 was less than 10 nM.
With `Cn1cc(-c2c(-c3c(C(F)F)nn4c3OC[C@@H](NCCO)C4)[nH]c3ncccc23)c(OC(F)F)n1` [EX. 558], the IC50 (class symbols) is less than 10 nM.
